# Data reported in patent US20250136579A1, “SALTS AND FREE BASES OF BIFUNCTIONAL COMPOUND AND POLYMORPH FORMS THEREOF” (NURIX THERAPEUTICS, INC., priority 2023, published 2025).
# “And” between values parts separate entries of the source, which are not always exact repeats. Identical values can stand only once. “Also recorded” adds a separate entry of the source. Counter-ions that a name gives are not always drawn.
# Columns and labels:
# Assay type in all cases: physicochemical
# [1] = stressing at 40° C./75% relative humidity (stability study, XRPD); conditions: for physical stability to stressing at 40° C./75% relative humidity (RH): 7 days
# [2] = dynamic vapor sorption (DVS) analysis, TA Instruments Q5000, 5 to 95% RH
# Description: For Fumarate Salt Form A, Dynamic vapor sorption (DVS) analysis was carried out using a TA Instruments Q5000 Dynamic Vapor Sorption analyser. The instrument was calibrated with standard weights and a sodium bromide standard for humidity. Approximately 10-25 mg of sample was loaded into a metal coated quartz pan for analysis. The sample was analysed at 25° C. with a maximum equilibration time of one hour in 10% relative humidity (RH) steps from 5 to 95% RH (adsorption cycle) and from 95 to 5% RH (desorption cycle). The movement from one step to the next occurred either after satisfying the equilibrium criterion of 0.01% weight change, or when the equilibrium criterion was not met after one hour. The percent weight change values were then calculated.
# [3] = initial physical stability evaluation at various relative humidity, room temperature, ~1 week (XRPD, Karl Fischer)
# Description: In another one or more examples, Karl Fischer titrations (water content analysis) for fumarate salt(s) (e.g., Fumarate Salt Form A) were carried out using a Mettler-Toledo C20 Coulometric KF titrator. The instrument was calibrated using a Hydranal water standard containing 1% water. The titrant was a Hydranal methanol solution.
# For initial physical stability evaluation, Fumarate Salt Form A was stored at various relative humidity conditions and room temperature for approximately 1 week (Table 14). Subsamples of Fumarate Salt Form A (approximately 90 mg) were weighed and placed inside relative humidity (RH) jars; after 1 week the samples were analyzed by XRPD and Karl Fisher analysis; the results are summarized in Table 14.
# [4] = water solubility, visual solubility estimation using pipet method; conditions: thermodynamic from solid
# [5] = estimated solubility by adding test solvent in aliquots to weighed solid, visual inspection
# Description: Solubilities of the compound of Formula (I), free base, in a few solvents were estimated. The experiments were carried out by adding the test solvent in aliquots to weighed portions of solid. Whether dissolution had occurred was judged by visual inspection after addition of each solvent aliquot. Solubility numbers were calculated by dividing the weight of the sample by total amount of solvent used to dissolve the sample. The actual solubilities may be greater than the numbers calculated because of the use of solvent aliquots that were too large or because of slow dissolution rates. […] The solubility number is expressed as “greater than or equal to” if dissolution occurred on addition of the first solvent aliquot.
# Solubilities of Fumarate Salt Form A are shown in Tables 8 and 9, in selected solvents and aqueous binary mixtures.
# Solubilities of the compound of Formula (I), Fumarate Salt Form A, are shown in Tables 15 and 16, in selected solvents and aqueous binary mixtures.
# [6] = slurry of crystalline Fumarate Salt Form A in solvents, XRPD
# Text: Regarding the use of crystalline Fumarate Salt Form A in polymorph screens, crystalline Fumarate Salt Form A as a starting material was mixed with different solvents under various conditions in attempts to generate polymorphs.
# [7] = storage under ambient conditions (15° C. to 30° C.), form conversion; conditions: temperature of from 15° C. to 30° C.
# Description: For Free Base Form E, Free Base Form F, Free Base Form G, Free Base Form H, and Free Base Form J: two different instruments were used for characterizing the materials by XRPD. Samples were analysed dry with a Malvern Panalytical Xpert Pro diffractometer, except for Free Base Form F. Free Base Form F was analysed using a Malvern Panalytical Empyrean diffractometer.
# Napsylate Salt Form C was analysed by XRPD.
structure (smiles),measurement,setting,value
CN1CCN([C@@H]2CCCN(c3cnc(C(N)=O)c(Nc4ccc(C5CCN(CC6CCN(c7ccc(C(=O)N[C@H]8CCC(=O)NC8=O)nc7)CC6)CC5)cc4)n3)C2)C1=O [Free Base Form G],physical stability to stressing at 40° C./75% relative humidity (RH),[1],not physically stable
CN1CCN([C@@H]2CCCN(c3cnc(C(N)=O)c(Nc4ccc(C5CCN(CC6CCN(c7ccc(C(=O)N[C@H]8CCC(=O)NC8=O)nc7)CC6)CC5)cc4)n3)C2)C1=O [Free Base Form H],physical stability to stressing at 40° C./75% relative humidity (RH),[1],physically stable
CN1CCN([C@@H]2CCCN(c3cnc(C(N)=O)c(Nc4ccc(C5CCN(CC6CCN(c7ccc(C(=O)N[C@H]8CCC(=O)NC8=O)nc7)CC6)CC5)cc4)n3)C2)C1=O [Free Base Form J],physical stability to stressing at 40° C./75% relative humidity (RH),[1],physically stable
CN1CCN([C@@H]2CCCN(c3cnc(C(N)=O)c(Nc4ccc(C5CCN(CC6CCN(c7ccc(C(=O)N[C@H]8CCC(=O)NC8=O)nc7)CC6)CC5)cc4)n3)C2)C1=O.O=C(O)/C=C/C(=O)O [Fumarate Salt Form A],DVS: water uptake in the range 40-75% RH,[2],approximately 0.5%
same,DVS: weight gain up to 95% RH,[2]; 25° C.,approximately 4%
same,DVS: hygroscopicity,"[2]; 25° C., 5 to 95% RH",Moderately hygroscopic
same,Post-DVS XRPD,[2]; material after sorption/desorption cycle,"Unchanged; also recorded: consistent with Fumarate Salt Form A exhibiting some peak shifting at higher angles; also recorded: Form A, high angle peak shifting"
same,DVS: water absorbed over each of the RH ranges 5 to 35%; 35 to 85%; 85 to 95% RH,[2]; one third of the total uptake per range,Approximately 1%
same,DVS: loss from 95 to 5% RH,[2]; ~800-mg scale lot,3% loss from 95 to 5% RH
same,DVS: loss upon drying at 5% RH,[2]; ~800-mg scale lot,0% loss upon drying at 5% RH
same,"KF-Oven % Water, Av","[3]; RT, 20% RH",1.23%
same,"KF-Oven % Water, single determinations","[3]; RT, 20% RH",1.22% and 1.24%
same,KF-Oven water,"[3]; RT, 20% RH",0.7 mol/mol
same,XRPD Result,"[3]; RT, 20% RH",Form A
same,"KF-Oven % Water, Av","[3]; RT, 39% RH",1.59%
same,"KF-Oven % Water, single determinations","[3]; RT, 39% RH",1.67% and 1.50%
same,KF-Oven water,"[3]; RT, 39% RH",0.9 mol/mol
same,XRPD Result,"[3]; RT, 39% RH",Form A
same,"KF-Oven % Water, Av","[3]; RT, 58% RH",1.58%
same,"KF-Oven % Water, single determinations","[3]; RT, 58% RH",1.53% and 1.63%
same,KF-Oven water,"[3]; RT, 58% RH",0.9 mol/mol
same,XRPD Result,"[3]; RT, 58% RH",Form A
same,"KF-Oven % Water, Av","[3]; RT, 75% RH",1.73%
same,"KF-Oven % Water, single determinations","[3]; RT, 75% RH",1.82% and 1.63%
same,KF-Oven water,"[3]; RT, 75% RH",0.9 mol/mol
same,XRPD Result,"[3]; RT, 75% RH",Form A
same,"KF-Oven % Water, Av","[3]; RT, 97% RH",3.86%
same,"KF-Oven % Water, single determinations","[3]; RT, 97% RH",3.77% and 3.94%
same,KF-Oven water,"[3]; RT, 97% RH",~2.1 mol/mol
same,XRPD Result,"[3]; RT, 97% RH",Form A
same,"KF-Oven % Water, Av","[3]; RT, ~0% RH",1.08%
same,"KF-Oven % Water, single determinations","[3]; RT, ~0% RH",1.14% and 1.01%
same,KF-Oven water,"[3]; RT, ~0% RH",0.6 mol/mol
same,KF-Oven water (moles),"[3]; RT, ~0% RH",approximately 0.6 moles
same,XRPD Result,"[3]; RT, ~0% RH",Form A
same,water content in the relative humidity range 40-75% RH (Karl Fisher),[3]; room temperature,approximately 0.9 moles
same,changes by XRPD after storage at various relative humidity conditions,"[3]; room temperature, 0 to 97% RH",no changes were observed
same,solubility,[4],< 300 µg/mL
same,solubility,"[5]; acetonitrile/H2O (45/55), aw 0.9, solubility without temperature",>10000 µg/mL
same,solubility,"[5]; aqueous with cosolvent or surfactant or cyclodextrin, thermodynamic from solid, 1,4-dioxane/H2O (60/40), aw 1.0, solubility without temperature, read-out: Solubility",10000 µg/mL
same,solubility,"[5]; aqueous with cosolvent or surfactant or cyclodextrin, thermodynamic from solid, 1,4-dioxane/H2O (95/5), aw 0.4, solubility without temperature, read-out: Solubility",1000 µg/mL
same,solubility,"[5]; aqueous with cosolvent or surfactant or cyclodextrin, thermodynamic from solid, 2-propanol/H2O (80/20), aw 0.9, at 45° C., read-out: Solubility",> 1000 µg/mL
same,solubility,"[5]; aqueous with cosolvent or surfactant or cyclodextrin, thermodynamic from solid, 2-propanol/H2O (80/20), aw 0.9, solubility without temperature, read-out: Solubility",< 1000 µg/mL
same,solubility,"[5]; aqueous with cosolvent or surfactant or cyclodextrin, thermodynamic from solid, acetone/H2O (70/30), aw 0.85, solubility without temperature, read-out: Solubility",6000 µg/mL
same,solubility,"[5]; aqueous with cosolvent or surfactant or cyclodextrin, thermodynamic from solid, acetonitrile/H2O (45/55), aw 0.9, solubility without temperature, read-out: Solubility",> 10000 µg/mL
same,solubility,"[5]; aqueous with cosolvent or surfactant or cyclodextrin, thermodynamic from solid, ethanol/H2O (70/30), aw 0.8, solubility without temperature, read-out: Solubility",4000 µg/mL
same,solubility,"[5]; aqueous with cosolvent or surfactant or cyclodextrin, thermodynamic from solid, methanol/H2O (50/50), aw 0.75, solubility without temperature, read-out: Solubility",2000 µg/mL
same,solubility,"[5]; aqueous with cosolvent or surfactant or cyclodextrin, thermodynamic from solid, tetrahydrofuran/H2O (80/20), aw 1, solubility without temperature, read-out: Solubility",> 9000 µg/mL
same,solubility,"[5]; organic solvent or mixture, thermodynamic from solid, 1,4-dioxane, at 60° C., read-out: Solubility",1000 µg/mL
same,solubility,"[5]; organic solvent or mixture, thermodynamic from solid, acetone, at 60° C., read-out: Solubility",< 1000 µg/mL
same,solubility,"[5]; organic solvent or mixture, thermodynamic from solid, acetonitrile (ACN), at 60° C., read-out: Solubility",< 1000 µg/mL
same,solubility,"[5]; organic solvent or mixture, thermodynamic from solid, dichloromethane (DCM), at 60° C., read-out: Solubility",< 1000 µg/mL
same,solubility,"[5]; organic solvent or mixture, thermodynamic from solid, dimethylformamide (DMF), at RT, read-out: Solubility",> 50000 µg/mL
same,solubility,"[5]; organic solvent or mixture, thermodynamic from solid, ethanol (EtOH), at 60° C., read-out: Solubility",< 1000 µg/mL
same,solubility,"[5]; organic solvent or mixture, thermodynamic from solid, ethyl formate, at 60° C., read-out: Solubility",< 1000 µg/mL
same,solubility,"[5]; organic solvent or mixture, thermodynamic from solid, methanol (MeOH), at RT, read-out: Solubility",1000 µg/mL
same,solubility,"[5]; organic solvent or mixture, thermodynamic from solid, methyl ethyl ketone (MEK), at 60° C., read-out: Solubility",< 1000 µg/mL
same,solubility,"[5]; organic solvent or mixture, thermodynamic from solid, tetrahydrofuran (THF), at 60° C., read-out: Solubility",< 1000 µg/mL
same,solubility in aqueous solvents with high water activities (qualitative),[5]; polymorph screening by salt formation in situ,soluble
same,solubility,"[5]; thermodynamic from solid, water, at 60° C., read-out: Solubility",< 1000 µg/mL
same,stability upon slurry in aqueous binary mixtures with high water activities (XRPD),[6]; 50° C. for 1 week,appeared to be stable
same,result of slurries in non-aqueous and some low water activity solvents (XRPD),"[6]; e.g., dioxane/water 95:5, aw 0.4",disordered/low crystalline materials
CN1CCN([C@@H]2CCCN(c3cnc(C(N)=O)c(Nc4ccc(C5CCN(CC6CCN(c7ccc(C(=O)N[C@H]8CCC(=O)NC8=O)nc7)CC6)CC5)cc4)n3)C2)C1=O [Napsylate Salt Form B],physical stability to ambient conditions,[7],conversion to Napsylate Salt Form C
CN1CCN([C@@H]2CCCN(c3cnc(C(N)=O)c(Nc4ccc(C5CCN(CC6CCN(c7ccc(C(=O)N[C@H]8CCC(=O)NC8=O)nc7)CC6)CC5)cc4)n3)C2)C1=O [Succinate Salt Form B],form after stressing at 40° C./75% relative humidity (RH),[1]; 1 week (FIG. 72),converted back to Succinate Salt Form A
